From patent US10100058B2, “Fused heterocyclic compounds as CaM kinase inhibitors” (Gilead Sciences, Inc., priority 2016, dated 2018)

Target: recombinant CaMKIIδ (Homo sapiens (Human), UniProt Q13557)
Assay: CaMKIIδ biochemical assay (HTRF)
Details: 10 pM CaMKIIδ, 110 nM calmodulin, 12 μM ATP, 1 hour; read-out: CAMKIID-HTRF-384V2 (IC50 - nM)
Protocol: CaMKIIδ Biochemical Assay
The biochemical activity of recombinant CaMKIIδ was measured by monitoring the phosphorylation of a target peptide using Homogenous Time Resolved Fluorescence (HTRF) technology from CisBio Bioassays.

| SMILES | IC50 |
| --- | --- |
| N[C@H]1CCN(C(=O)c2ccnc(-c3cnn4ccc(-c5cccs5)nc34)c2)C1 [Example 85, (S)-(3-aminopyrrolidin-1-yl)(2-(5-(thiophen-2-yl)pyrazolo[1,5-a]pyrimidin-3-yl)pyridin-4-yl)methanone] | 4.8 nM |
| N[C@@H]1CCC[C@@H]2CCCN(C(=O)c3ccnc(-c4cnn5ccc(-c6cccs6)nc45)c3)[C@@H]21 [Example 86, ((4aR,8R,8aS)-8-aminooctahydroquinolin-1(2H)-yl)(2-(5-(thiophen-2-yl)pyrazolo[1,5-a]pyrimidin-3-yl)pyridin-4-yl)methanone] | 0.99 nM |
| N[C@H]1CCN(C(=O)c2ccnc(-c3cnn4ccc(-c5ccccc5)nc34)c2)C1 [Example 87, (S)-(3-aminopyrrolidin-1-yl)(2-(5-phenylpyrazolo[1,5-a]pyrimidin-3-yl)pyridin-4-yl)methanone] | 45.2 nM |
| N[C@H]1C[C@@H]2CCC[C@H]1N2C(=O)c1ccnc(-c2cnn3ccc(-c4ccccc4)nc23)c1 [Example 88, ((1S,5R,6S)-6-amino-8-azabicyclo[3.2.1]octan-8-yl)(2-(5-phenylpyrazolo[1,5-a]pyrimidin-3-yl)pyridin-4-yl)methanone] | 50.3 nM |
| O=C(c1ccnc(-c2cnn3ccc(-c4ccccc4)nc23)c1)N1CCCCC12CCNC2 (stereo not drawn) [Example 89, (2-(5-phenylpyrazolo[1,5-a]pyrimidin-3-yl)pyridin-4-yl)(2,6-diazaspiro[4.5]decan-6-yl)methanone] | 13.6 nM |
| C[C@H](N)[C@@H]1CCCCN1C(=O)c1ccnc(-c2cnn3ccc(-c4ccccc4)nc23)c1 [Example 90, ((S)-2-((S)-1-aminoethyl)piperidin-1-yl)(2-(5-phenylpyrazolo[1,5-a]pyrimidin-3-yl)pyridin-4-yl)methanone] | 58.5 nM |
| O=C(c1ccnc(-c2cnn3ccc(-c4ccccc4)nc23)c1)N1C2CCCC1CNCC2 (stereo not drawn) [Example 91] | 32.8 nM |
| O=C(c1ccnc(-c2cnn3ccc(-c4ccccc4)nc23)c1)N1CCC2CNCC21 (stereo not drawn) [Example 92, (hexahydropyrrolo[3,4-b]pyrrol-1(2H)-yl)(2-(5-phenylpyrazolo[1,5-a]pyrimidin-3-yl)pyridin-4-yl)methanone] | 32.1 nM |
| O=C(c1ccnc(-c2cnn3ccc(-c4ccccc4)nc23)c1)N1CCCC[C@@H]1[C@@H]1CCCN1 [Example 93, (2-(5-phenylpyrazolo[1,5-a]pyrimidin-3-yl)pyridin-4-yl)((R)-2-((S)-pyrrolidin-2-yl)piperidin-1-yl)methanone] | 27.8 nM |
| N[C@H]1CC[C@H]2CCCN(C(=O)c3ccnc(-c4cnn5ccc(-c6ccccc6)nc45)c3)[C@H]21 [Example 94, ((4aR,7S,7aR)-7-aminooctahydro-1H-cyclopenta[b]pyridin-1-yl)(2-(5-phenylpyrazolo[1,5-a]pyrimidin-3-yl)pyridin-4-yl)methanone] | 7 nM |
| O=C(c1ccnc(-c2cnn3ccc(-c4ccccc4)nc23)c1)N1CCC2CCNCC21 (stereo not drawn) [Example 95, (octahydro-1H-pyrrolo[2,3-c]pyridin-1-yl)(2-(5-phenylpyrazolo[1,5-a]pyrimidin-3-yl)pyridin-4-yl)methanone] | 390 nM |
| N[C@@H]1CC[C@H]2CCCN(C(=O)c3ccnc(-c4cnn5ccc(-c6ccccc6)nc45)c3)[C@H]21 [Example 96, ((4aR,7R,7aR)-7-aminooctahydro-1H-cyclopenta[b]pyridin-1-yl)(2-(5-phenylpyrazolo[1,5-a]pyrimidin-3-yl)pyridin-4-yl)methanone] | 12.7 nM |
| O=C(c1ccnc(-c2cnn3ccc(-c4ccccc4)nc23)c1)N1CCCC12CCCNC2 (stereo not drawn) [Example 97, (2-(5-phenylpyrazolo[1,5-a]pyrimidin-3-yl)pyridin-4-yl)(1,7-diazaspiro[4.5]decan-1-yl)methanone] | 216 nM |
| N[C@@H]1CCC[C@H]2CCCN(C(=O)c3ccnc(-c4cnn5ccc(-c6ccccc6)nc45)c3)[C@H]21 [Example 98, ((4aS,8R,8aR)-8-aminooctahydroquinolin-1(2H)-yl)(2-(5-phenylpyrazolo[1,5-a]pyrimidin-3-yl)pyridin-4-yl)methanone] | 7.36 nM |
| N[C@H]1CC[C@@H]2CCCN(C(=O)c3ccnc(-c4cnn5ccc(-c6ccccc6)nc45)c3)[C@@H]21 [Example 99, ((4aS,7S,7aS)-7-aminooctahydro-1H-cyclopenta[b]pyridin-1-yl)(2-(5-phenylpyrazolo[1,5-a]pyrimidin-3-yl)pyridin-4-yl)methanone] | 6.98 nM |
| O=C(c1ccnc(-c2cnn3ccc(-c4ccccc4)nc23)c1)N1C[C@H]2CC[C@@H](C1)N2 [Example 100, ((1R,5S)-3,8-diazabicyclo[3.2.1]octan-3-yl)(2-(5-phenylpyrazolo[1,5-a]pyrimidin-3-yl)pyridin-4-yl)methanone] | 29.8 nM |
| O=C(c1ccnc(-c2cnn3ccc(-c4cccs4)nc23)c1)N1CCC[C@@H]2CCNC[C@@H]21 [Example 101, ((4aR,8aR)-octahydro-1,7-naphthyridin-1(2H)-yl)(2-(5-(thiophen-2-yl)pyrazolo[1,5-a]pyrimidin-3-yl)pyridin-4-yl)methanone] | 9.54 nM |
| CCN(CC)[C@@H](C)CNC(=O)c1cc(N)nc(-c2cnn3ccc(-c4cccs4)nc23)c1 [Example 102, (S)-2-amino-N-(2-(diethylamino)propyl)-6-(5-(thiophen-2-yl)pyrazolo[1,5-a]pyrimidin-3-yl)isonicotinamide] | 0.04 nM |
| CCN(CC)[C@@H](C)CNC(=O)c1cc(Cl)nc(-c2cnn3ccc(-c4cccs4)nc23)c1 [Example 103, (S)-2-chloro-N-(2-(diethylamino)propyl)-6-(5-(thiophen-2-yl)pyrazolo[1,5-a]pyrimidin-3-yl)isonicotinamide] | 0.52 nM |
| CCN(CC)[C@@H](C)CNC(=O)c1cc(-c2cnn3ccc(-c4cccs4)nc23)nc(C(C)C)c1 [Example 104, (S)—N-(2-(diethylamino)propyl)-2-isopropyl-6-(5-(thiophen-2-yl)pyrazolo[1,5-a]pyrimidin-3-yl)isonicotinamide] | 3.96 nM |
| CN(C)c1cc(C(=O)N2CCCC[C@@H]2CN)cc(-c2cnn3ccc(-c4cccs4)nc23)n1 [Example 106, (R)-(2-(aminomethyl)piperidin-1-yl)(2-(dimethylamino)-6-(5-(thiophen-2-yl)pyrazolo[1,5-a]pyrimidin-3-yl)pyridin-4-yl)methanone] | 1.59 nM |
| CCN(CC)[C@@H](C)CNC(=O)c1cc(-c2cnn3ccc(-c4cccs4)nc23)nc(C(F)(F)F)c1 [Example 107, (S)—N-(2-(diethylamino)propyl)-2-(5-(thiophen-2-yl)pyrazolo[1,5-a]pyrimidin-3-yl)-6-(trifluoromethyl)isonicotinamide] | 5.62 nM |
| CN(C)c1cc(C(=O)N2CC[C@H](N)C2)cc(-c2cnn3ccc(-c4cccs4)nc23)n1 [Example 109, (S)-(3-aminopyrrolidin-1-yl)(2-(dimethylamino)-6-(5-(thiophen-2-yl)pyrazolo[1,5-a]pyrimidin-3-yl)pyridin-4-yl)methanone] | 20.8 nM |
| COc1cc(C(=O)N2CC[C@H](N)C2)cc(-c2cnn3ccc(-c4cccs4)nc23)n1 [Example 110, (S)-(3-aminopyrrolidin-1-yl)(2-methoxy-6-(5-(thiophen-2-yl)pyrazolo[1,5-a]pyrimidin-3-yl)pyridin-4-yl)methanone] | 7.6 nM |
